Patent publication US20040049072A1, “RXR modulators with improved pharmacologic profile” (priority 1999, published 2004)
“Also recorded” adds a separate entry of the source. Like-named read-outs stand apart in the source and are kept apart here.

Tests used:
RXRα = biological target: T1, RXRα (Homo sapiens, UniProt P19793); experiment: RXRα binding (competition with tritiated LGD1069)
T1 sequence (P19793 1-462): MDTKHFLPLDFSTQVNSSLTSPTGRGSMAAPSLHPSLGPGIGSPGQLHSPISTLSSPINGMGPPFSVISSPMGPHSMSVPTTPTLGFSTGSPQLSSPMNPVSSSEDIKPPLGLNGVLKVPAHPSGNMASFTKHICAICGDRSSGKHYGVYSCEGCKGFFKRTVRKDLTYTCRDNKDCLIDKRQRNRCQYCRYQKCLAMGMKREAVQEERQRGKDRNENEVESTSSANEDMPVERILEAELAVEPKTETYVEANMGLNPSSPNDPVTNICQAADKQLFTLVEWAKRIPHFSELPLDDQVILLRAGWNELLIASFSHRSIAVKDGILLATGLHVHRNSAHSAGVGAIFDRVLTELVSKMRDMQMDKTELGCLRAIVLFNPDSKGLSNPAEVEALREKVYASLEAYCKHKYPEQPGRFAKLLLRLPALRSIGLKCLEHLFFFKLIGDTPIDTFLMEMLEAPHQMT
Description: Non-specific binding was defined as that binding remaining in the presence of 500 nM of the appropriate unlabelled compound. At the end of the incubation period, bound ligand was separated from free. The amount of bound tritiated retinoid was determined by liquid scintillation counting of an aliquot (700 μL) of the supernatant fluid or the hydroxylapatite pellet.
After correcting for non-specific binding, IC50 values were determined. […] The IC50 value was determined graphically from a log-logit plot of the data. The Ki values were determined by application of the Cheng-Prussof equation to the IC50 values, the labeled ligand concentration and the Kd of the labeled ligand.

RXRα homodimer (RXR:RXR) = biological target: T2, RXRα homodimer (RXR:RXR) (Homo sapiens, UniProt P19793); experiment: RXR homodimer co-transfection assay in CV-1 cells; format: cell-based; settings: CV-1, read-out: RXR:RAR CV-1 (%) Ag.
T2 sequence (P19793 1-462): T1 sequence (P19793 1-462)
Excerpt: In the co-transfection assay, cloned cDNA for one or more IRs (e.g., human RARα, RXRα, or PPARγ), alone or in combination (i.e. for heterodimer assays) under the control of a constitutive promoter (e.g., the SV 40, RSV or CMV promoter) is introduced by transfection (a procedure to introduce exogenous genes into cells) into a background cell substantially devoid of endogenous IRs. These introduced gene(s) direct the recipient cells to make the IR protein(s) of interest. A further gene is also introduced (co-transfected) into the same cells in conjunction with the IR gene(s). This further gene, comprising the cDNA for a reporter protein, such as firefly luciferase (LUC), controlled by an appropriate hormone responsive promoter containing a hormone response element (HRE). This reporter plasmid functions as a reporter for the transcriptional-modulating activity of the target IR(s). Thus, the reporter acts as a surrogate for the products (mRNA then protein) normally expressed by a gene under control of the target receptor(s) and their native hormone(s).
Exposing the transfected cells to an agonist ligand compound increases reporter activity in the transfected cells. This activity can be conveniently measured, e.g., by increasing luciferase production and enzymatic activity, which reflects compound-dependent, IR-mediated increases in reporter transcription. […] Increasing concentrations of an antagonist will decrease the reporter signal (e.g., luciferase production). The co-transfection assay is therefore useful to detect both agonists and antagonists of specific IRs. Furthermore, it determines not only whether a compound interacts with a particular IR, but whether this interaction mimics (agonizes) or blocks (antagonizes) the effects of native or synthetic regulatory molecules on target gene expression, as well as the specificity and strength of this interaction.
The receptor expression plasmid was cotransfected along with a reporter plasmid at 50 ng/well, the internal control plasmid pRS-β-Gal at 50 ng/well and filler DNA, pGEM, at 90 ng/well.
Six hours after transfection, media was removed and the cells were washed with phosphate-buffered saline (PBS). Media containing compounds of the present invention in concentrations ranging from 10^−10 to 10^−5 M were added to the cells. […] Retinoids were dissolved in dimethylsulfoxide for use in the transcriptional activation assays. Two to three replicates were used for each sample. Transfections and subsequent procedures were performed on a Biomek 1000 automated workstation.
After 40 hours, the cells were washed with PBS, lysed with a detergent-based buffer and assayed for LUC and β-Gal activities using a luminometer or spectrophotometer, respectively. For each replicate, the normalized response (NR) was calculated as: […]
The mean and standard error of the mean (SEM) of the NR were calculated. Data were plotted as the response of the compound compared to the reference compounds over the range of the dose-response curve. […] Antagonist activity was determined by testing the amount of LUC expression in the presence of the RXR agonists described above at the EC50 concentration for such known compounds. […] In addition, the efficacy of antagonists was determined as a function (%) of maximal inhibition.

RXRα:RAR heterodimer = biological target: T3, RXRα:RAR heterodimer (Homo sapiens, UniProt P19793); experiment: RXR:RAR heterodimer co-transfection assay in CV-1 cells; format: cell-based
T3 construct: expressed in transfected cells; host or cells: CV-1 cells
T3 sequence (P19793 1-462): T1 sequence (P19793 1-462)
Description: (§1) For determination of agonist activity in the context of the RXR:RAR heterodimer or the RXR:PPARγ heterodimer, media containing compounds of the present invention in concentrations ranging from 10^−10 to 10^−5 M were added to the cells.
(§2) Compounds of the present invention were also tested for the ability to synergize with a PPARγ agonist in the context of an RXR heterodimer. […] Efficacy of the compounds of the present invention in the agonist and synergy assays was calculated as the maximum response obtained over the range of the dose response curve relative to the maximum response obtained by the reference agonist. Antagonist efficacy was determined as a function (%) of maximal inhibition.
However, when RAR is occupied, typical RXR agonists activate the heterodimer. […] To examine the effects of the compounds of the present invention on the transcriptional properties of the RXR:RAR heterodimer, a heterodimer cotransfection assay as described above was employed.

db/db mouse = db/db mouse study (rodent model of Type II diabetes); settings: for inhibition in vivo at 30 mg/kg: Mus musculus, po, 168 h, read-out: db/db mouse Glu. (D7); for db/db mouse Trigs. (D3): plasma triglycerides as % of control values, day 3, 30 mg/kg/day; for insulin sensitizing activity with thyroid axis suppression and triglyceride elevations: rodent models of Type II Diabetes
Description: Mice (obtained from Jackson Laboratory), ZDF rats (obtained from Genetic Models Inc.) and fa/fa rats (obtained from either Charles River, or Harlan) were maintained on 12-hour light/dark cycle. […] Compounds were administered at the specified doses by oral gavage on the morning of each day of any experiment. Blood samples were obtained 3 hours after dosing from fed animals under anesthesia and collected into heparinized capillary tubes from the tail vein.
RXRα:PPARγ heterodimer = biological target: T4, RXRα:PPARγ heterodimer (Homo sapiens, UniProt P19793); experiment: RXR:PPARγ heterodimer co-transfection assay in CV-1 cells; format: cell-based
T4 construct: expressed in transfected cells; host or cells: CV-1 cells
T4 sequence (P19793 1-462): T1 sequence (P19793 1-462)
T4 sequence (P37231 1-505 partner): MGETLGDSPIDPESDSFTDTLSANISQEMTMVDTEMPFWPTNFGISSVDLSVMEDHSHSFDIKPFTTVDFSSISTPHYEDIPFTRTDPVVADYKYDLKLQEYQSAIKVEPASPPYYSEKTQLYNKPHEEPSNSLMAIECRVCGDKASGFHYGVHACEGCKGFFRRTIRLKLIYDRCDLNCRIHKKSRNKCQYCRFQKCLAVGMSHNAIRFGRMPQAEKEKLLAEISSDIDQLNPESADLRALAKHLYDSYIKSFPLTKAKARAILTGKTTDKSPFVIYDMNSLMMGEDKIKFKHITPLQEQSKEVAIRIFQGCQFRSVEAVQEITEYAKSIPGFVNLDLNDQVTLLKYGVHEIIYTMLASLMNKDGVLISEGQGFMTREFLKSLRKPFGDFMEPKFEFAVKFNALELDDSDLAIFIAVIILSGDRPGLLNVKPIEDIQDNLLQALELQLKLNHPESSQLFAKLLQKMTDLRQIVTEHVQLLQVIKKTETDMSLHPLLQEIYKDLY
Description: as §1, §2
To examine the effects of the compounds of the present invention on the transcriptional properties of the RXR:PPARγ, a heterodimer cotransfection assay as described above was employed.

[1] = Table 2, from IC50 by Cheng-Prussof equation, tritiated LGD1069, read-out: Bind RXRα Ki
[2] = CV-1, read-out: RXR:RAR CV-1 (%) Ag.
[3] = Table 2, maximal response in presence of 100 nM BRL49653 relative to BRL49653 alone

Structure (SMILES) | Ki (RXRα; [1]) [nM] | Emax (RXRα homodimer (RXR:RXR)) [%] | Emax (RXRα:RAR heterodimer; [2]) [%] | inhibition in vivo at 30 mg/kg (db/db mouse) [%] | db/db mouse Trigs. (D3) (db/db mouse) [%] | insulin sensitizing activity with thyroid axis suppression and triglyceride elevations (db/db mouse) | other results
C/C(=C/C=C/C(C)=C/C(=O)O)c1cc(C(C)(C)C)cc(C(C)(C)C)c1OCC(F)(F)F [Compound L23] | 27 | 1 | 7 | 53 |  |  | 
C/C(=C/C=C/C(C)=C/C(=O)O)c1cc(-c2ccccc2F)cc(C(C)C)c1OCC(F)F [Compound L19] | 1 | 3 | 2 | 68 | 187 | maintain the desirable insulin sensitizing activity and minimize both the suppression of the thyroid axis and triglyceride elevations | PPARγ CV-1 (%) Synergy (RXRα:PPARγ heterodimer): 47%
CCCCCOc1c(\C(C)=C/C=C/C(C)=C/C(=O)O)cc(C(C)C)cc1C(C)C [Compound L7] |  |  |  |  |  | maintain the desirable insulin sensitizing activity and eliminate or reduce both the suppression of the thyroid axis and triglyceride elevations; also recorded: maintain the desirable insulin sensitizing activity and minimize both the suppression of the thyroid axis and triglyceride elevations | 
C/C(=C/C=C/C(C)=C/C(=O)O)c1cc(C(C)(C)C)cc(C(C)(C)C)c1OCC(F)F [Compound L13] |  |  |  | 54 | 109 | maintain the desirable insulin sensitizing activity and minimize both the suppression of the thyroid axis and triglyceride elevations | 
CCCOc1c(C2=C(/C=C/C(C)=C/C(=O)O)CCC2)cc(C(C)C)cc1C(C)C [Compound L8] |  |  |  |  |  | maintain the desirable insulin sensitizing activity and minimize both the suppression of the thyroid axis and triglyceride elevations | 
CN(C)C(=N)N=C(N)N [metformin, reference compound] |  |  |  |  |  |  | efficacy over 3 subsequent weeks (db/db mouse; 7 week old db/db mice, 300 mg/kg daily oral gavage): decreases; plasma glucose (db/db mouse; 7 week old db/db mice, 300 mg/kg daily oral gavage, maximum effect after first week): lowers plasma glucose
CCOc1c(\C(C)=C/C=C/C(C)=C/C(=O)O)cc(C(F)(F)C(F)(F)F)cc1C(C)C [Compound L15] | 6 | 44 | 1 | 80 | 156 | maintain the desirable insulin sensitizing activity and minimize both the suppression of the thyroid axis and triglyceride elevations | PPARγ CV-1 (%) Synergy (RXRα:PPARγ heterodimer): 99%
C/C(=C\c1ccc(C(=O)O)cc1)c1ccc2c(c1)C(C)(C)CCC2(C)C [TTNPB, (E)-4-[2-(5,6,7,8-tetrahydro-5,5,8,8-tetramethyl-2-naphthalenyl)-1-propenyl]benzoic acid, reference compound] |  |  |  |  |  |  | Emax (RXRα:RAR heterodimer; CV-1, read-out: RXRα:RAR Heterodimer Cotransfection Assay Agonist Efficacy (%)): 115%; agonist activity on the RXR:RAR heterodimer (RXRα:RAR heterodimer; compound alone): strongly transactivate
CCc1cc(-c2ccsc2/C=C/C(C)=C/C(=O)O)c(OCCCF)c(C2CCCC2)c1 [Compound L17] |  | 3 | 4 | 29 | 75 | maintain the desirable insulin sensitizing activity and minimize both the suppression of the thyroid axis and triglyceride elevations | Ki (RXRα): 8 nM; PPARγ CV-1 (%) Synergy (RXRα:PPARγ heterodimer; [3]): 88%
CN(CCOc1ccc(CC2SC(=O)NC2=O)cc1)c1ccccn1 (centres unmarked) [BRL 49653, reference compound] |  |  |  |  |  |  | RXRα:PPARγ Heterodimer Cotransfection Assay Agonist Efficacy (%) (RXRα:PPARγ heterodimer; maximal response relative to response of BRL 49653): 100%
CCC(C)(C)c1cc(\C(C)=C/C=C/C(C)=C/C(=O)O)c(OCC(F)F)c(C(C)(C)CC)c1 [Compound L18] | 29 | 2 | 1 | 45 | 134 | maintain the desirable insulin sensitizing activity and minimize both the suppression of the thyroid axis and triglyceride elevations | PPARγ CV-1 (%) Synergy (RXRα:PPARγ heterodimer; [3]): 69%
CCCCOc1c(C2=C(/C=C/C(C)=C/C(=O)O)CCC2)cc(C(C)C)cc1C(C)C [Compound L9] |  |  |  |  |  | maintain the desirable insulin sensitizing activity and minimize both the suppression of the thyroid axis and triglyceride elevations | 
CCc1cc(-c2ccsc2/C=C/C(C)=C/C(=O)O)c(OCCCC(F)(F)F)c(C(C)(C)C)c1 [Compound L16] |  | 1 | 2 | 37 | 79 | maintain the desirable insulin sensitizing activity and minimize both the suppression of the thyroid axis and triglyceride elevations | Ki (RXRα): 2 nM; PPARγ CV-1 (%) Synergy (RXRα:PPARγ heterodimer; [3]): 64%
